This note sets out measurements from PubChem BioAssay (NCI).

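Interpolation was linear, between the two tested concentrations surrounding the appropriate level; five concentrations were tested over 48 hours in 96-well plates. TGI marks complete inhibition of growth.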 Where a SMILES comes first, the peptide text is derived from it. The star is where a group is joined. Fmoc = O=C(OCC1c2ccccc2-c2ccccc21)*; Boc = CC(C)(C)OC(=O)*

Experiment in all cases: NCI-60 cell line screen, 48 h
The subject of test [1] is SK-MEL-2 melanoma.
Test [2] concerns OVCAR-5 ovarian.
Test [3] has as its system MDA-N.
Test [4] concerns IGROV1 ovarian.
For test [5], the system named is UACC-257 melanoma.
In test [6] the test system is SK-MEL-5 melanoma.
Test [7] relates to K-562 leukemia.
Test [8] deals with HOP-62 NSCLC.
The test system of test [9] is SK-OV-3 ovarian.
The subject of test [10] is KM12 colon.
Test [11] relates to DU-145 prostate.
The test system of test [12] is PC-3 prostate.
Test [13] deals with CCRF-CEM leukemia.
In test [14] the test system is M14 melanoma.
Test [15] concerns HCT-116 colon.
Test [16] deals with CAKI-1 renal.
Test [17] has as its system MALME-3M melanoma.
In test [18] the test system is SF-539 CNS.
Test [19] concerns NCI-H226 lung.

`C/C(=C/C(=O)Nn1c(Cc2ccccc2)n[nH]c1=O)C(=O)O`: the TGI in [1], in test [2], in [3], in [4], in [5] and in test [6] was greater than 100 µM throughout. In addition, the TGI in test [7], in [8], in [9], in test [10], in test [11] and in test [12] was greater than 100 µM each time. Moreover, the TGI in [13], in test [14], in test [15], in test [16], in test [17] and in [18] was greater than 100 µM in each case. Also, the TGI in test [19] was greater than 100 µM.
Take `CC(C)(C)OC(=O)NCCCCC(NC(=O)OCC1c2ccccc2-c2ccccc21)C(=O)N1CCCC1C(=O)NCC(N)=O` (stereo not drawn) (Fmoc-Lys(Boc)-Pro-Gly-NH2; configuration not given here): the TGI in test [1] was greater than 100 µM; in test [2], greater than 100 µM; in test [3] it was 49.9 µM; in [4], greater than 100 µM; in [5], greater than 100 µM; in test [6] it was greater than 100 µM. Besides, the TGI was greater than 100 µM in test [7]; greater than 100 µM in [8]; 26.5 µM in [9]; 38.3 µM in test [10]; greater than 100 µM in test [11]; greater than 100 µM in test [12]. Also, the TGI in [13] is greater than 100 µM; in [14] it was greater than 100 µM; in test [15] it was greater than 100 µM; in [16] it was 30.1 µM; in [17], 34.5 µM; in [18], greater than 100 µM. In test [19], this compound registered a TGI greater than 100 µM.
For the compound `O=c1[nH]c(Nc2cc(Cl)cc(Cl)c2)nc2nc[nH]c12`, the TGI in [1], in [2], in test [3], in test [4], in [5] and in [6] was greater than 75 µM throughout. Further, the TGI in test [7], in [8], in test [9], in test [10], in test [11] and in test [12] was greater than 75 µM in each case. Besides, the TGI in test [13], in test [14], in test [15], in test [16], in test [17] and in [18] was greater than 75 µM each time. This compound displayed a TGI in test [19] greater than 75 µM.
Turning to `N#C/C(=C\c1cc(Cl)cc(Cl)c1)c1ccccn1`, the TGI in test [1] was greater than 100 µM; in [2] it was greater than 100 µM; in [3], 40.2 µM; in [4], greater than 100 µM; in test [5] it was greater than 100 µM; in [6], greater than 100 µM. The TGI in test [7], in [8], in test [9], in test [10], in test [11] and in [12] was greater than 100 µM throughout. For the same compound, the TGI in [13], in test [14], in [15], in test [16], in test [17] and in test [18] was greater than 100 µM each time. The compound also came in with a TGI in test [19] of 85.7 µM.
Take `COc1ccc(C(SCCO)(c2ccccc2)c2ccccc2)cc1`: the TGI was 28 µM in test [1]; 36.4 µM in test [2]; 26 µM in test [3]; 32.7 µM in test [5]; 21.7 µM in test [6]; greater than 100 µM in test [7]. In addition, the TGI in [8] worked out at 37.9 µM; in test [9] it was 34.8 µM; in test [10] it was 37 µM; in test [11], 27 µM; in test [12] it was 25.4 µM; in test [13] it was 64.8 µM. The TGI amounted to 21.3 µM in test [14]; 23.7 µM in test [15]; 32.2 µM in [16]; 38.5 µM in [17]; 30.2 µM in test [18]; 30.2 µM in test [19].
Turning to `Cc1ccc(O)c(-c2cc(-c3cccc(Cl)c3)c(C#N)c(N)n2)c1`, the TGI stood at 31.6 µM in [1]; 70.4 µM in test [2]; 37.8 µM in test [3]; 24.6 µM in test [4]; 29.2 µM in test [6]; 48.4 µM in [7]. In addition, the TGI is 48.2 µM in test [8]; 66.2 µM in test [9]; 64.2 µM in test [10]; greater than 100 µM in [11]; 83.4 µM in test [12]; 55.2 µM in test [13]. The TGI was 46.1 µM in test [14]; 30.1 µM in [15]; greater than 100 µM in test [16]; 58.1 µM in test [17]; 52 µM in test [18]; 55.4 µM in [19].
Turning to `NC1CC2NC3CCCCC3NC2CC1N` (stereo not drawn), the TGI is greater than 100 µM in test [1]; greater than 100 µM in [2]; greater than 100 µM in [3]; greater than 100 µM in test [4]; greater than 100 µM in [5]; 67.3 µM in [6]. Moreover, the TGI in test [7], in test [9], in test [10], in test [11], in [12] and in [13] was greater than 100 µM throughout. Besides, the TGI in [14], in test [15], in test [16], in test [17], in [18] and in test [19] was greater than 100 µM in each case.
As to `CSc1ccc(NC(=S)NN(C)C)cc1`, the TGI in test [1], in test [3], in test [4], in [5], in [6] and in test [7] was greater than 10 µM each time. Also, the TGI in test [8], in test [9], in test [10], in test [11], in test [12] and in test [13] was greater than 10 µM throughout. In addition, the TGI in test [14], in test [15], in [16], in [17], in test [18] and in [19] was greater than 10 µM each time.
